Measurements from US11078228B2, “Ectonucleotidase inhibitors and methods of use thereof” (Calithera Biosciences, Inc., priority 2018, dated 2021).
pIC50: −log10 of the molar value.

Molecular target: recombinant CD73 (Homo sapiens (Human), UniProt P21589)
Assay: Assay 1: Inhibition of the CD73 enzyme in vitro (0.5 nM CD73, 30 min room temperature, Malachite Green)
Format: biochemical
Settings: 0.5 nM CD73, 30 minutes at room temperature
Description: For measurements of soluble CD73 enzyme activity, recombinant CD73 was obtained from R&D Systems, Cat. No. 5795-EN-010. […] Reactions were allowed to proceed for 30 minutes at room temperature before the addition of 100 μL Malachite Green (Cell Signaling Technology, Cat. No. 12776). After 5 minutes at room temperature, absorbance at 630 nm was determined on a microplate spectrophotometer. The concentration of inorganic phosphate was determined using a phosphate standard curve.

Sequence of recombinant CD73 (P21589 27-547): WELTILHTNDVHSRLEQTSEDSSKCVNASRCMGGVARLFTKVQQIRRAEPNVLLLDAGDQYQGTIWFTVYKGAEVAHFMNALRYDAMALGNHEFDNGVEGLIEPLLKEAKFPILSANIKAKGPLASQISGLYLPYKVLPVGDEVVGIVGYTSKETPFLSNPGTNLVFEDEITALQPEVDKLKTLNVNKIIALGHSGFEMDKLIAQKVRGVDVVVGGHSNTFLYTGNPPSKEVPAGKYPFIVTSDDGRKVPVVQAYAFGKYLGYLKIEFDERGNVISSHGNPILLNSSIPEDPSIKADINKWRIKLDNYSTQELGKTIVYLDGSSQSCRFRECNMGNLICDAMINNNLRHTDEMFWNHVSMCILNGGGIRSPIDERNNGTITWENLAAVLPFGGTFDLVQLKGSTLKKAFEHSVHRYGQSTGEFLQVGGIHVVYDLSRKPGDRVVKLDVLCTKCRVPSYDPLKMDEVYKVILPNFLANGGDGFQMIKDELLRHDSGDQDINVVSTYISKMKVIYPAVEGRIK

| SMILES | pIC50 |
| --- | --- |
| C#C[C@@]1(O)[C@@H](COC(Cc2ccccc2)(C(=O)O)C(=O)O)O[C@@H](n2cnc3c(NC4CCCC4)nc(Cl)nc32)[C@@H]1O [Example 91, 2-benzyl-2-(((2R,3S,4R,5R)-5-(2-chloro-6-(cyclopentylamino)-9H-purin-9-yl)-3-ethynyl-3,4-dihydroxytetrahydrofuran-2-yl)methoxy)malonic acid] | 9.52 |
| C#C[C@@]1(O)[C@@H](COC(Cc2ccccc2)(C(=O)O)C(=O)O)O[C@@H](n2cnc3c(N4CCCC4)nc(Cl)nc32)[C@@H]1O [Example 90, 2-benzyl-2-(((2R,3S,4R,5R)-5-(2-chloro-6-(pyrrolidin-1-yl)-9H-purin-9-yl)-3-ethynyl-3,4-dihydroxytetrahydrofuran-2-yl)methoxy)malonic acid] | 9.05 |
| C#C[C@@]1(O)[C@@H](COC(Cc2cccc(OC(F)(F)F)c2)(C(=O)O)c2cscn2)O[C@@H](n2cnc3c(N)nc(Cl)nc32)[C@@H]1O (stereo partly drawn) [Example 183, 2-(((2R,3S,4R,5R)-5-(6-amino-2-chloro-9H-purin-9-yl)-3-ethynyl-3,4-dihydroxytetrahydrofuran-2-yl)methoxy)-2-(thiazol-4-yl)-3-(3-(trifluoromethoxy)phenyl)propanoic acid] | 7.25 |
| C#C[C@@]1(O)[C@@H](CO[C@](Cc2ccccc2)(C(=O)O)c2nnn[nH]2)O[C@@H](n2cnc3c(N)nc(Cl)nc32)[C@@H]1O [Example 191, (S)-2-(((2R,3S,4R,5R)-5-(6-amino-2-chloro-9H-purin-9-yl)-3-ethynyl-3,4-dihydroxytetrahydrofuran-2-yl)methoxy)-3-phenyl-2-(1H-tetrazol-5-yl)propanoic acid] | 8.15 |
| C#C[C@@]1(O)[C@@H](CO[C@@](Cc2ccccc2)(C(=O)O)c2cscn2)O[C@@H](n2cnc3c(N)nc(Cl)nc32)[C@@H]1O (single isomer, unassigned) [Example 181] | 7.68 |
| C#C[C@@]1(O)[C@@H](COC(C(=O)O)c2cscn2)O[C@@H](n2cnc3c(N)nc(Cl)nc32)[C@@H]1O (stereo partly drawn) [Example 179, 2-(((2R,3S,4R,5R)-5-(6-amino-2-chloro-9H-purin-9-yl)-3-ethynyl-3,4-dihydroxytetrahydrofuran-2-yl)methoxy)-2-(thiazol-4-yl)acetic acid] | 6.49 |
| C#C[C@@]1(O)[C@@H](COC(C(=O)O)S(=O)(=O)c2ccccc2)O[C@@H](n2cnc3c(NC4CCCC4)nc(Cl)nc32)[C@@H]1O (stereo partly drawn) [Example 129, 2-(((2R,3S,4R,5R)-5-(2-chloro-6-(cyclopentylamino)-9H-purin-9-yl)-3-ethynyl-3,4-dihydroxytetrahydrofuran-2-yl)methoxy)-2-(phenylsulfonyl)acetic acid] | 5.80 |
| C#C[C@@]1(O)[C@@H](COC(Cc2cccc(OC(F)(F)F)c2)(C(=O)O)C(=O)O)O[C@@H](n2cnc3c(N)nc(Cl)nc32)[C@@H]1O [Example 23, 2-(((2R,3S,4R,5R)-5-(6-amino-2-chloro-9H-purin-9-yl)-3-ethynyl-3,4-dihydroxytetrahydrofuran-2-yl)methoxy)-2-(3-(trifluoromethoxy)benzyl)malonic acid] | 8.30 |
| C#C[C@@]1(O)[C@@H](COP(=O)(O)CP(=O)(O)O)O[C@@H](n2cnc3c(NCc4ccccc4)nc(Cl)nc32)[C@@H]1O [Example 203, (((((2R,3S,4R,5R)-5-(6-(benzylamino)-2-chloro-9H-purin-9-yl)-3-ethynyl-3,4-dihydroxytetrahydrofuran-2-yl)methoxy)(hydroxy)phosphoryl)methyl)phosphonic acid] | 8.38 |
| C#C[C@@]1(O)[C@@H](COC(C(=O)O)C(=O)N2CCCC2)O[C@@H](n2cnc3c(NC4CCCC4)nc(Cl)nc32)[C@@H]1O (stereo partly drawn) [Example 114, 2-(((2R,3S,4R,5R)-5-(2-chloro-6-(cyclopentylamino)-9H-purin-9-yl)-3-ethynyl-3,4-dihydroxytetrahydrofuran-2-yl)methoxy)-3-oxo-3-(pyrrolidin-1-yl)propanoic acid] | 6.75 |
| Nc1nc(Cl)nc2c1ncn2[C@@H]1O[C@H](COC(C(=O)O)C(=O)O)[C@](O)(C#Cc2ccnn2Cc2ccccc2)[C@H]1O [Example 29, 2-(((2R,3S,4R,5R)-5-(6-amino-2-chloro-9H-purin-9-yl)-3-((1-benzyl-1H-pyrazol-5-yl)ethynyl)-3,4-dihydroxytetrahydrofuran-2-yl)methoxy)malonic acid] | 8.70 |
| C#C[C@@]1(O)[C@@H](COC(Cc2cccc(C(=O)O)c2)(C(=O)O)c2cscn2)O[C@@H](n2cnc3c(N)nc(Cl)nc32)[C@@H]1O (stereo partly drawn) [Example 182, 3-(2-(((2R,3S,4R,5R)-5-(6-amino-2-chloro-9H-purin-9-yl)-3-ethynyl-3,4-dihydroxytetrahydrofuran-2-yl)methoxy)-2-carboxy-2-(thiazol-4-yl)ethyl)benzoic acid] | 7.62 |
| C#C[C@@]1(O)[C@@H](CO[C@H](C(=O)O)c2csc(-c3ccccc3)n2)O[C@@H](n2cnc3c(N)nc(Cl)nc32)[C@@H]1O (single isomer, unassigned) [Example 193] | 6.58 |
| C#C[C@@]1(O)[C@@H](COC(C(=O)O)C(=O)O)O[C@@H](n2cnc3c(N)nc(Cl)nc32)[C@@H]1O [Example 26, 2-(((2R,3S,4R,5R)-5-(6-amino-2-chloro-9H-purin-9-yl)-3-ethynyl-3,4-dihydroxytetrahydrofuran-2-yl)methoxy)malonic acid] | 7.24 |
| CC[C@@]1(O)[C@@H](COC(C(=O)O)C(=O)O)O[C@@H](n2cnc3c(N)nc(Cl)nc32)[C@@H]1O [Example 55, 2-(((2R,3S,4R,5R)-5-(6-amino-2-chloro-9H-purin-9-yl)-3-ethyl-3,4-dihydroxytetrahydrofuran-2-yl)methoxy)malonic acid] | 7.46 |
| C#C[C@@]1(O)[C@@H](COC(C(=O)NO)c2cscn2)O[C@@H](n2cnc3c(N)nc(Cl)nc32)[C@@H]1O (single isomer, unassigned) [Example 185] | 4.93 |
| C#C[C@@]1(O)[C@@H](COC(Cc2ccccc2)(C(=O)O)C(=O)O)O[C@@H](n2cnc3c(NCc4ccccc4)nc(Cl)nc32)[C@@H]1O [Example 59, 2-benzyl-2-(((2R,3S,4R,5R)-5-(6-(benzylamino)-2-chloro-9H-purin-9-yl)-3-ethynyl-3,4-dihydroxytetrahydrofuran-2-yl)methoxy)malonic acid] | 9.00 |
| Nc1nc(Cl)nc2c1ncn2[C@@H]1O[C@H](COC(C(=O)O)C(=O)O)[C@](O)(C#Cc2cc[nH]n2)[C@H]1O [Example 27, 2-(((2R,3S,4R,5R)-3-((1H-pyrazol-3-yl)ethynyl)-5-(6-amino-2-chloro-9H-purin-9-yl)-3,4-dihydroxytetrahydrofuran-2-yl)methoxy)malonic acid] | 7.74 |
| C#C[C@@]1(O)[C@@H](COC(Cc2cccc(C(F)(F)F)c2)(C(=O)O)C(=O)OCC)O[C@@H](n2cnc3c(N)nc(Cl)nc32)[C@@H]1O (stereo partly drawn) [Example 49, 2-(((2R,3S,4R,5R)-5-(6-amino-2-chloro-9H-purin-9-yl)-3-ethynyl-3,4-dihydroxytetrahydrofuran-2-yl)methoxy)-3-ethoxy-3-oxo-2-(3-(trifluoromethyl)-benzyl)propanoic acid] | 6.56 |
| C#C[C@@]1(O)[C@@H](COC(C(=O)OCC)P(=O)(O)O)O[C@@H](n2cnc3c(N4CCOCC4)nc(Cl)nc32)[C@@H]1O (stereo partly drawn) [Example 124, (1-(((2R,3S,4R,5R)-5-(2-chloro-6-morpholino-9H-purin-9-yl)-3-ethynyl-3,4-dihydroxytetrahydrofuran-2-yl)methoxy)-2-ethoxy-2-oxoethyl)phosphonic acid] | 7.57 |
| C#C[C@@]1(O)[C@@H](COC(C(=O)NO)c2cscn2)O[C@@H](n2cnc3c(N)nc(Cl)nc32)[C@@H]1O (single isomer, unassigned) [Example 186] | 5.05 |
| C#C[C@@]1(O)[C@@H](CO[C@](Cc2ccccc2)(C(=O)O)c2cscn2)O[C@@H](n2cnc3c(N)nc(Cl)nc32)[C@@H]1O (single isomer, unassigned) [Example 180] | 8.05 |
| C#C[C@@]1(O)[C@@H](COC(Cc2ccccc2)(C(=O)O)C(=O)O)O[C@@H](n2cnc3c(NCC4CC4)nc(Cl)nc32)[C@@H]1O [Example 92, 2-benzyl-2-(((2R,3S,4R,5R)-5-(2-chloro-6-((cyclopropylmethyl)amino)-9H-purin-9-yl)-3-ethynyl-3,4-dihydroxytetrahydrofuran-2-yl)methoxy)malonic acid] | 9.10 |
| C#C[C@@]1(O)[C@@H](COC(Cc2ccccc2)(C(=O)O)C(=O)O)O[C@@H](n2cnc3c(NCCN(CC)CC)nc(Cl)nc32)[C@@H]1O [Example 61, 2-benzyl-2-(((2R,3S,4R,5R)-5-(2-chloro-6-((2-(diethylamino)ethyl)-amino)-9H-purin-9-yl)-3-ethynyl-3,4-dihydroxytetrahydrofuran-2-yl)methoxy)-malonic acid] | 8.82 |
| C#CCC(OC[C@H]1O[C@@H](n2cnc3c(N)nc(Cl)nc32)[C@H](O)[C@@]1(O)C#C)(C(=O)O)C(=O)O [Example 25, 2-(((2R,3S,4R,5R)-5-(6-amino-2-chloro-9H-purin-9-yl)-3-ethynyl-3,4-dihydroxytetrahydrofuran-2-yl)methoxy)-2-(prop-2-yn-1-yl)malonic acid] | 8.15 |
| C[C@@]1(O)[C@@H](CO[C@](Cc2ccc(-c3ccccc3)cc2)(C(=O)O)c2cscn2)O[C@@H](n2cnc3c(N)nc(Cl)nc32)[C@@H]1O (single isomer, unassigned) [Example 198] | 5.64 |
| C#C[C@@]1(O)[C@@H](COC(Cc2ccccc2)(C(=O)O)c2csc(C(=O)O)n2)O[C@@H](n2cnc3c(N)nc(Cl)nc32)[C@@H]1O (stereo partly drawn) [Example 196, 4-(1-(((2R,3S,4R,5R)-5-(6-amino-2-chloro-9H-purin-9-yl)-3-ethynyl-3,4-dihydroxytetrahydrofuran-2-yl)methoxy)-1-carboxy-2-phenylethyl)thiazole-2-carboxylic acid] | 7.09 |
